Test results published in patent US20220274983A1, “JAK KINASE INHIBITOR AND USE THEREOF” (JIANGSU CAREPHAR PHARMACEUTICAL CO., LTD., priority 2019, published 2022).

Columns and labels:
JAK1 = JAK1 (Homo sapiens, UniProt P23458); assay: JAK kinase inhibitory activity, HTRF biochemical assay
Procedure: The compounds of the above embodiments were applied to the detection and screening of JAK kinase inhibitory activity.
A corresponding volume of DMSO was added to each well of a first 96-well plate. 20-30 μL of 100-200 μM stock solution of different test compounds were added to each well. The mixture was shaken and mixed for 3 min. All of the compounds were subjected to 3× serial dilution. 60-80 μL Kinase buffer was added to each well of a second 96-well plate, and 1-2 μL of the solution taken from each well of the first 96-well plate was added to the corresponding well of the second 96-well plate. The mixture was shaken and mixed for 3 min. 5 μL of compound dilution taken from each well of the second compound dilution plate was transferred to the corresponding well of a 384-well test plate. 1-2 μL TK Substrate-biotin was added to each well of the test plate. 1-2 μL of enzyme mixture was added to each well. At the same time, a blank well without enzyme was set. 1-2 μL of ATP solution was added to each well, the plate was sealed and reacted at room temperature. The reaction time was as follows: JAK1: 2 h, JAK2: 30 min, JAK3: 30 min, and TYK2: 50 min. 3-5 μL of Streptavidin-XL665 and 3-5 μL of TK Antibody-cryptate were added to each well, the plate was sealed and allowed to stand at room temperature for 30 min to complete the reaction.
The percentage of inhibition was calculated based on the following formula:
Inhibition %=[(Ratiomax−Ratiocompound)/(Ratiomax−Ratiomin)]×100%
Ratiocompound is the HTRF ratio at a given compound concentration, Ratiomin is the HTRF ratio added to the blank well, and Ratiomax is the HTRF ratio without adding the compound. GraphPad Prism 5.0 software was used to plot a sigmoid dose-inhibition rate curve with a non-linear regression model and calculate the IC50 value.

BaF3 cells = assay: Proliferation inhibition based on BaF3 cells (IL-3 medium, CTG); type: cell-based; conditions: Mus musculus, medium containing IL-3, read-out: IC50 (uM), proliferation inhibitory activity on BaF3 cells
Procedure: 1. Cell plating: cultured cells were collected with RPMI1640+10% FBS (containing IL-3) medium and counted for viable cells with Vi-Cell XR cell counter. The cell suspension was adjusted to an appropriate concentration with RPMI1640+10% FBS (containing IL-3) medium and then added to a 96-well cell culture plate. A certain amount of cell suspension was added to each well of the 96-well cell culture plate. The cells were cultured in corresponding incubators.
(§1) 2. Drug treatment: a series of test compound concentration (work solution-1) was prepared using DMSO with 3× gradient dilution, and then it was subjected to fold dilution with RPMI1640+10% FBS (containing IL-3) to obtain a work solution-2; Cisplatin's work solution-2 was prepared with RPMI1640+10% FBS (containing IL-3), and then 1-10 μL solution taken from the work solution-2 was added to the prepared cell wells containing medium. The cells were cultured in the corresponding incubators. An appropriate CTG solution was added to each well.
(§2) Cell Survival Rate Calculation
(§3) T is the luminescence reading of a drug treatment group, and C is the average luminescence reading of a solvent control group.

THP1 cells = assay: Proliferation inhibition based on THP1 cells (IL-4 stimulation, CTG); type: cell-based; conditions: Homo sapiens, THP-1, read-out: IC50 (uM), proliferation inhibitory activity on THP1 cells
Procedure: (§4) 1. Cell plating: cultured cells were collected and counted for viable cells with Vi-Cell XR cell counter. The cell suspension was adjusted to an appropriate concentration with the medium and then added to a 96-well cell culture plate. 80 μL of the cell suspension was added to each well of the 96-well cell culture plate. The cell plating density depended on the growth rate of the cells. The cells were cultured in corresponding incubators.
as §1, with “treatment and IL-4 stimulation: firstly,” for “treatment:”, “FBS” for “FBS (containing IL-3)”, “FBS,” for “FBS (containing IL-3),”, “incubators. After incubation, 1-10 μL of IL-4 medium was added to each well and continued to culture.” for “incubators.”
Cell Survial Rate Calculation
as §3

Hela cells = assay: Proliferation inhibition based on Hela cells (OSM stimulation, CTG); type: cell-based; conditions: Homo sapiens, OSM stimulation, read-out: IC50 (uM), proliferation inhibitory activity on Hela cells
Procedure: as §4, with “50 μL-100” for “80”
2. Drug Treatment and OSM Stimulation
Firstly, a series of test compound concentration (work solution-1) was prepared using DMSO with 3× gradient dilution, and then it was subjected to fold dilution with RPMI1640+10% FBS to obtain a work solution-2; Cisplatin's work solution-2 was prepared with RPMI1640+10% FBS, and then 1-10 μL solution taken from the work solution-2 was added to the prepared cell wells containing medium. After incubation, 1-10 μL of OSM medium was added to each well and continued to culture. An appropriate CTG solution was added to each well. The mixture was shaken and mixed for 1-5 min and then a luminescence signal was determined with an Envision2104 plate reader.
as §2, §3

Sequence of JAK1 (P23458 whole entry, species assumed): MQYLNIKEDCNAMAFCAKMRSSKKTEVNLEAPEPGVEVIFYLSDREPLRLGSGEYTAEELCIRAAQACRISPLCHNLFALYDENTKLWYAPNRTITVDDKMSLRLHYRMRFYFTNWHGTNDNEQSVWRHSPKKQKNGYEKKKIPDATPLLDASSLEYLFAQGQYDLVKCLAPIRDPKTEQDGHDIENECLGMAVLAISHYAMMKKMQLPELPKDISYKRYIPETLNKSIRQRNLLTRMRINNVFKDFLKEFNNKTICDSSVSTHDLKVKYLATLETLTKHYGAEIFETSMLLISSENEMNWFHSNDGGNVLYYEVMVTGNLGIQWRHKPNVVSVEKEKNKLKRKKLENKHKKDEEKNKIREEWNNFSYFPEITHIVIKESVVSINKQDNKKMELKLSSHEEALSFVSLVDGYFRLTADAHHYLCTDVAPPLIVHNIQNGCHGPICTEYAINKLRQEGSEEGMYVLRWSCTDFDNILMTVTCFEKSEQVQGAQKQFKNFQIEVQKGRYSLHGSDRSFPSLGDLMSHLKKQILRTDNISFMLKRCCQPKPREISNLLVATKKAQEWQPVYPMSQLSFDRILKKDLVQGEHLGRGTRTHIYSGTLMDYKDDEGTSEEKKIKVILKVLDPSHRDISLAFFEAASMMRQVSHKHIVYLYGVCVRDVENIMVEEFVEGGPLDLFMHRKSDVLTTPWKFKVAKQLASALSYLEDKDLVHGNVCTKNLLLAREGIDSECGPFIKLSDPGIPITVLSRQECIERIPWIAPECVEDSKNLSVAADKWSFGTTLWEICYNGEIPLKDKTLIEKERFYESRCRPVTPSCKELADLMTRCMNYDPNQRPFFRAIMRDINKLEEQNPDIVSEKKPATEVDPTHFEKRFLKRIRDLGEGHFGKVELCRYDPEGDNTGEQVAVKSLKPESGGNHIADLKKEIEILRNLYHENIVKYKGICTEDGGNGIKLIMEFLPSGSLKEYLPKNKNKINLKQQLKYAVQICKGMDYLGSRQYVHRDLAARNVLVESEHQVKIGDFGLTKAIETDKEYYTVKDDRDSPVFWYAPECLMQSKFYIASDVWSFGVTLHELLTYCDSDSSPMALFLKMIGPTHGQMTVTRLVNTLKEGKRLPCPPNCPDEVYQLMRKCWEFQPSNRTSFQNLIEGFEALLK

Row | Structure (SMILES) | IC50 (JAK1) [nM] | IC50 (BaF3 cells) [µM] | IC50 (THP1 cells) [µM] | IC50 (Hela cells) [µM]
1 | O=C(Nc1cn2c(-c3ccc(CN4CCS(=O)(=O)CC4)s3)cccc2n1)[C@H]1C[C@@H]1F (relative stereo) [EXP-3, trans-N-[5-[5-[(1,1-dioxo-1,4-thiazin-4-yl)methyl]-2-thiophene]imidazo[1,2-a]pyridin-2-yl]-2-fluoro-cyclopropylcarboxamide] | 10 to 30 | < 5 | < 5 | < 5
2 | O=C(Nc1nc2cccc(-c3ccc(CN4CCS(=O)(=O)CC4)s3)n2n1)C1CC1 [EXP-1] | 30 to 50 | < 5 | < 5 | < 5
